# Assay results: patent publication US5462948A, “Treatment of addiction to drugs and substances of abuse” (H. Lundbeck A/S, priority 1991, dated 1995)
# Tests used:
# [1] = Catalepsy test in rats (s.c., vertical wire mesh); conditions: rat, maximum catalepsy within the first 6 hours
# Experimental: Test compound is given s.c. in different doses. The rat (170-240 g) is placed on a vertical wire mesh (mesh diameter 12 mm). The rat is considered cataleptic if it remains immobile for more than 15 sec. The maximum number of rats showing catalepsy within the first 6 hours is recorded for each dose group. The results are recorded in fractions and an ED50 value is calculated by means of log-probit analysis. The results are shown in Table 1 (cf. Our Internat. Patent Application Publ. No. WO 92/00070).
# [2] = Inhibition of nicotine withdrawal symptoms in mice (black/white test box); format: in vivo, mice (male BKW); conditions: 0.1 mg/kg i.p.; FIG. 2
# Experimental: (§1) The tests are tests for the effect of a substance on the abstinence symptoms induced by withdrawal of a drug of a substance of abuse in mice measured as the effect on some specific behavioral changes following to withdrawal of the drug or substance of abuse.
# (§2) The test was conducted using an open-top experimental box (45*27*27 cm) two fifths of which was partitioned from the rest, painted black and illuminated with a dim red light (1×60 W, zero Lux). The remainder of the box was painted white and brightly illuminated (60 W, 400 Lux) with a white light source. The light sources were located 17 cm above the box and the base of the box was lined into 9 cm squares. Access between the two compartments was by means of a 7.5×7.5 cm opening located in floor level at the centre of the partition.
# (§3) The mice were male BKW mice having weight of 25-30 g, housed in groups of 10 and given free acces to drink and food and kept on a dark/light cycle of 12 hours.
# The test was carried out by taking the mice to a dimly illuminated room and then after 1 hour adaption to the new environment placing them in the centre of the white section of the test box. Behavioural changes were assed via remote video recording. The following behavioural changes were measured:
# a) The time spent in the white and black section;
# b) the number of explorative rearings in both the white and black section; […]
# [3] = Inhibition of diazepam withdrawal symptoms in mice (black/white test box); format: in vivo, mice (male BKW); conditions: 0.1 mg/kg i.p.; FIG. 1
# Experimental: as §1, §2, §3
# Diazepam (10 mg/kg) was given i.p. twice a day for 7 days and then withdrawn. […]
# The test was carried out by taking the mice to a dimly illuminated room and then after 1 hour adaption to the new environment placing them in the centre of the white section of the test box. […] The following behavioural changes were measured: […]
Structure (SMILES),Cataleptic activity ED50 (s.c.) [1] [µmol/kg],other results
"O=C1NCCN1CCN1CC=C(c2cn(-c3ccc(F)cc3)c3ccc(Cl)cc23)CC1 [Comp. B, 5-Chloro-1-(4-fluorophenyl)-3-[1-[2-(2-imidazolidinon-1-yl)ethyl]-1,2,3,6-tetrahydro-4-pyridyl]-1H-indole, reference compound]",2.2,
"O=C1CCCN1CCN1CCC(c2cn(-c3ccc(F)cc3)c3ccc(Cl)cc23)CC1 [Comp. No 4, 5-chloro-1-(4-fluorophenyl)-3-[1-[2-(2-pyrrolidinon-1-yl)ethyl]-4-piperidyl]-1H-indole]",23,
"O=C1NCCN1CCN1CC=C(c2cn(-c3ccc(F)cc3)c3ccc(C(F)(F)F)cc23)CC1 [Comp. A, 1-(4-Fluorophenyl)-3-[1-[2-(2-imidazolidinon-1-yl)ethyl]-1,2,3,6-tetrahydropyridin-4-yl]-5-trifluoromethyl-1H-indole, reference compound]",0.49,
"O=C1NCCN1CCN1CCC(c2cn(-c3ccc(F)cc3)c3ccc(Cl)cc23)CC1 [Sertindole, 5-chloro-1-(4-fluorophenyl)-3-[1-[2-(2-imidazolidinon-1-yl)ethyl]-4-piperidyl]-1H-indole]",,"Inhibiting effect on the withdrawal behavioural changes, nicotine [2]: statistically significant inhibiting effect; Relieving effect on the symptoms following withdrawal of nicotine [2]: marked relieving effect; Inhibiting effect on the withdrawal behavioural changes, diazepam [3]: statistically significant inhibiting effect; Relieving effect on the symptoms following withdrawal of diazepam [3]: marked relieving effect"
"CN1CCN(CCN2CCC(c3cn(-c4ccc(F)cc4)c4ccc(Cl)cc34)CC2)C1=O [Comp. No 3, 5-chloro-1-(4-fluorophenyl)-3-[1-[2-(3-methyl-2-imidazolidinon-1-yl)ethyl]-4-piperidyl]-1H-indole]",31,
